Data: article PMC4986690 (Analytical chemistry, 2015)

Key:
[1] = molecular target: T1, sex hormone binding globulin (SHBG) (Homo sapiens, UniProt P04278)
T1 sequence (P04278 30-402): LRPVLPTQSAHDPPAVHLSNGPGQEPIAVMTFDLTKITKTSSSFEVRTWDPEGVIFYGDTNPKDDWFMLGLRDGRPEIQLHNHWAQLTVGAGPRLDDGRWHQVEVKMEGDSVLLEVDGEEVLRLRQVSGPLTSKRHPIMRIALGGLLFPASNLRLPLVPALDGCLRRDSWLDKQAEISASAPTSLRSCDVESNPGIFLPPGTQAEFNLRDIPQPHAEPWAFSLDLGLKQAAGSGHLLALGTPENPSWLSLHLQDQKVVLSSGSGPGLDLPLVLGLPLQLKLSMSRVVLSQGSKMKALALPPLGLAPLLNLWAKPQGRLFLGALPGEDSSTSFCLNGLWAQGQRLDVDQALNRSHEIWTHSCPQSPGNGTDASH

[2] = molecular target: human serum albumin (HSA) (Homo sapiens, UniProt P02768); assay: ultrafast affinity extraction, two-dimensional HSA microcolumns, UV […] nm; type: binding
Sequence of human serum albumin (HSA) (P02768 25-609): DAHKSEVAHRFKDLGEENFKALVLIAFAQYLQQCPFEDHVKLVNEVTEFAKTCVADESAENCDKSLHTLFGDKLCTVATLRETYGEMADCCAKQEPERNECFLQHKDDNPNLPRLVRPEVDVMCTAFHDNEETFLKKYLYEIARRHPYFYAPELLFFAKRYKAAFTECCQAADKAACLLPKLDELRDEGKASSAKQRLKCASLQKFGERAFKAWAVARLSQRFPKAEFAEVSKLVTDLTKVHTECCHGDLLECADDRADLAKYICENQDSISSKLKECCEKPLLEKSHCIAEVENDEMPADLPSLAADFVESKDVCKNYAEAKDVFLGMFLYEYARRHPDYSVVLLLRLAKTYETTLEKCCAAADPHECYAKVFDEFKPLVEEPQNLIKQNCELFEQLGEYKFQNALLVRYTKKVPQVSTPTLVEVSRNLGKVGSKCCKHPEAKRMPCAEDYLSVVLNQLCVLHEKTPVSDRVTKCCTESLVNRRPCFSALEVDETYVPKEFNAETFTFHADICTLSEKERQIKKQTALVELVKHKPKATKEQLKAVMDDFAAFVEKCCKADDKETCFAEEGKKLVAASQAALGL

C[C@]12CC[C@H]3[C@@H](CCC4=CC(=O)CC[C@@]43C)[C@@H]1CC[C@@H]2O [testosterone]
Kd [1]: 0.000909 µM | Kd [2]: 31.2 µM
